Assay results taken from patent US10597388B2, “Pyridazinone herbicides” (FMC CORPORATION, priority 2014, dated 2020).

Experiments:
Type in all cases: in vivo
[1] = system: crabgrass, large (large crabgrass, Digitaria sanguinalis); assay: Test C greenhouse herbicide test, pre- and postemergence
In short: (§1)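 Two application timings: at sowing into a soil/sand blend, and on 2–18 cm seedlings in peat-vermiculite potting mix. A non-phytotoxic, surfactant-containing solvent carried the compounds. Plants were compared with controls and rated visually on 0–100 after 13–15 d.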

[2] = system: oilseed rape (Brassica napus); assay: as above
In short: as §1

[3] = system: galium (catchweed bedstraw, Galium aparine); assay: Test A greenhouse herbicide test, postemergence
In short: (§2)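 Plants grown in loam soil/sand blend pots were treated postemergence at 2 to 10 cm height, one- to two-leaf stage, with formulated test chemicals. After approximately 10 d in a greenhouse, injury was rated visually against untreated controls on a 0 to 100 scale (0 no effect, 100 complete control).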

[4] = system: blackgrass (Alopecurus myosuroides); assay: Test A greenhouse herbicide test, postemergence; settings: for Plant response rating, Blackgrass: 125 g ai/ha, 0 to 100 scale where 0 is no effect and 100 is complete control; for Blackgrass plant response rating: 500 g ai/ha, 0 to 100 scale, 0 is no effect, 100 is complete control
In short: as §2

[5] = system: oat, wild (wild oat, Avena fatua); assay: Test C greenhouse herbicide test, postemergence; settings: Postemergence
In short: (§3)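 Test chemicals were applied postemergence to greenhouse plants at the 1- to 4-leaf stage (2–18 cm tall) growing in peat/vermiculite medium. After 13–15 d, injury was rated visually against untreated controls on a 0–100 scale (0 = no effect, 100 = complete control).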

[6] = system: kochia (Kochia scoparia); assay: Test C greenhouse herbicide test, postemergence; settings: Postemergence
In short: as §3

[7] = system: ragweed (common ragweed, Ambrosia elatior); assay: Test A greenhouse herbicide test, pre- and postemergence
In short: (§4)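 Seeds sown in loam–sand blend got a preemergence directed soil spray of compound in non-phytotoxic solvent with surfactant. Postemergence treatment was given at 2–10 cm, one- to two-leaf stage. After ~10 d in greenhouse, injury was rated visually vs untreated controls, 0 (no effect) to 100 (complete control).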

[8] = system: corn (Zea mays); assay: as above; settings: Postemergence
In short: as §4

[9] = system: kochia (Kochia scoparia); assay: as above
In short: as §4

[10] = system: pigweed (Amaranthus retroflexus); assay: as above
In short: as §4

[11] = system: barnyardgrass (Echinochloa crus-galli); assay: as above
In short: as §4

[12] = system: wheat (Triticum aestivum); assay: as above; settings: Postemergence
In short: as §4

[13] = Postemergence, 31 g ai/ha, scale 0 to 100 (0 no effect, 100 complete control)
[14] = Postemergence, 125 g ai/ha, scale 0 to 100, 0 is no effect, 100 is complete control
[15] = Postemergence, 250 g ai/ha, scale 0 to 100, 0 no effect, 100 complete control, 13 to 15 d
[16] = Preemergence, 31 g ai/ha, scale 0 to 100, 0 is no effect, 100 is complete control
[17] = Preemergence, 62 g ai/ha, scale 0 to 100, 0 is no effect, 100 is complete control
[18] = Preemergence, 125 g ai/ha, scale 0 to 100, 0 is no effect, 100 is complete control
[19] = Preemergence, 250 g ai/ha, scale 0 to 100 (0 no effect, 100 complete control)
[20] = postemergence, 62 g ai/ha, scale 0 to 100, 0 no effect, 100 complete control
[21] = 125 g ai/ha, 0 to 100 scale where 0 is no effect and 100 is complete control
[22] = 500 g ai/ha, visual rating after approx. 10 d, 0 to 100 scale (0 no effect, 100 complete control)
[23] = 31 g ai/ha, scale 0 to 100 (0 no effect, 100 complete control)
[24] = 125 g ai/ha, scale 0 to 100, 0 is no effect, 100 is complete control
[25] = 250 g ai/ha, scale 0 to 100, 0 no effect, 100 complete control, 13 to 15 d
[26] = Postemergence, 125 g ai/ha, 0 to 100 scale where 0 is no effect and 100 is complete control
[27] = Postemergence, 500 g ai/ha, visual rating after approx. 10 d, 0 to 100 scale (0 no effect, 100 complete control)
[28] = Preemergence, 125 g ai/ha, 0 to 100 scale where 0 is no effect and 100 is complete control
[29] = Preemergence, 500 g ai/ha, 0 to 100 scale where 0 is no effect and 100 is complete control
[30] = Postemergence, 500 g ai/ha, 0 to 100 scale, 0 is no effect, 100 is complete control

CCCC(=O)Oc1c(C)nn(C)c(=O)c1-c1c(C)sc2c(C)cc(C)cc12 [Compound 106]
85: Plant response rating, Oilseed Rape [2, 14]
70: Plant response rating, Crabgrass, Large [1, 16] | Plant response rating, Crabgrass, Large [1, 17] | Plant response rating, Kochia [6, 23] | Plant response rating, Kochia [9, 26] | Plant response rating, Barnyardgrass [11, 26]
0: Plant response rating, Oilseed Rape [2, 16] | Plant response rating, Oilseed Rape [2, 17] | Plant response rating, Corn [8, 21] | Plant response rating, Wheat [12, 21]
80: Crabgrass, Large plant response rating [1, 19] | Plant response rating, Kochia [6, 24] | Plant response rating, Kochia [6, 25] | Barnyardgrass plant response rating [11, 28]
100: Plant response rating, Galium [3, 21] | Plant response rating, Galium [3, 22] | Plant response rating, Ragweed [7, 29] | Pigweed plant response rating [10, 28] | Plant response rating, Pigweed [10, 29] | Plant response rating, Barnyardgrass [11, 29]
95: Plant response rating, Oilseed Rape [2, 15]
90: Oilseed Rape plant response rating [2, 19] | Plant response rating, Blackgrass [4] | Blackgrass plant response rating [4] | Plant response rating, Oat, Wild [5, 24] | Plant response rating, Oat, Wild [5, 25] | Plant response rating, Ragweed [7, 26] | Plant response rating, Ragweed [7, 27] | Ragweed plant response rating [7, 28] | Plant response rating, Kochia [9, 27] | Plant response rating, Kochia [9, 29] | Plant response rating, Pigweed [10, 26] | Plant response rating, Pigweed [10, 27] | Barnyardgrass plant response rating [11, 30]
50: Plant response rating, Oat, Wild [5, 23]
60: Plant response rating, Oilseed Rape [2, 13]
40: Crabgrass, Large plant response rating [1, 20]
20: Plant response rating, Corn [8, 22] | Kochia plant response rating [9, 28] | Plant response rating, Wheat [12, 22]
75: Plant response rating, Crabgrass, Large [1, 18]
25: Plant response rating, Crabgrass, Large [1, 13]
30: Plant response rating, Crabgrass, Large [1, 14] | Plant response rating, Crabgrass, Large [1, 15] | Plant response rating, Oilseed Rape [2, 18]

CCC(=O)Oc1c(C)nn(C)c(=O)c1-c1c(C)sc2ccc(Cl)cc12 [Compound 109]
20: Barnyardgrass plant response rating [11, 28] | Plant response rating, Wheat [12, 21]
95: Plant response rating, Oilseed Rape [2, 14] | Plant response rating, Oilseed Rape [2, 15] | Plant response rating, Kochia [6, 23]
40: Plant response rating, Crabgrass, Large [1, 16] | Crabgrass, Large plant response rating [1, 20]
80: Crabgrass, Large plant response rating [1, 19] | Plant response rating, Blackgrass [4] | Plant response rating, Oat, Wild [5, 23] | Plant response rating, Ragweed [7, 26]
5: Plant response rating, Oilseed Rape [2, 16]
0: Plant response rating, Corn [8, 21]
65: Plant response rating, Crabgrass, Large [1, 17]
35: Plant response rating, Crabgrass, Large [1, 13]
30: Plant response rating, Corn [8, 22] | Plant response rating, Barnyardgrass [11, 26] | Plant response rating, Wheat [12, 22]
60: Plant response rating, Crabgrass, Large [1, 14] | Plant response rating, Crabgrass, Large [1, 15]
100: Plant response rating, Galium [3, 21] | Plant response rating, Galium [3, 22] | Plant response rating, Kochia [6, 24] | Plant response rating, Kochia [6, 25] | Plant response rating, Ragweed [7, 27] | Ragweed plant response rating [7, 28] | Plant response rating, Ragweed [7, 29] | Kochia plant response rating [9, 28] | Plant response rating, Kochia [9, 29] | Pigweed plant response rating [10, 28] | Plant response rating, Pigweed [10, 29] | Plant response rating, Barnyardgrass [11, 29]
85: Plant response rating, Oilseed Rape [2, 17] | Plant response rating, Oilseed Rape [2, 18]
90: Oilseed Rape plant response rating [2, 19] | Blackgrass plant response rating [4] | Plant response rating, Oat, Wild [5, 24] | Plant response rating, Oat, Wild [5, 25] | Plant response rating, Kochia [9, 26] | Plant response rating, Kochia [9, 27] | Plant response rating, Pigweed [10, 26] | Plant response rating, Pigweed [10, 27] | Barnyardgrass plant response rating [11, 30]
70: Plant response rating, Crabgrass, Large [1, 18] | Plant response rating, Oilseed Rape [2, 13]
